# According to patent publication US9326972B2, “Use of phenylmethimazoles, methimazole derivatives, and tautomeric cyclic thiones for the treatment of autoimmune/inflammatory diseases associated with toll-like receptor overexpression” (Ohio University, priority 2004, dated 2016):
# Experiments:
# [1] = Solubility and storage stability of C10 solutions; format: physicochemical
# Source text: In the studies described in Table 5, C10 was formulated in DMSO and administered i.p. DMSO was used due to the low solubility of C10 in aqueous environments but can have well documented independent effects (M. S. Ivanovic, et al., Toxicology Letters, 147:153-159 (2004))]. […] To circumvent these issues, we used a proprietary cyclodextrin (CD) excipient that is approved by the FDA for use in humans to make an aqueous formulation of C10. […] In a test using LPS-induced toxic shock, oral excipient-solubilized C10, stored in diluted form at 4° C. for 8 weeks, was as effective in preventing death as was freshly made C10 i.p. in DMSO at the same 1 mg/kg dose.
# NF-κB = NF-κB Luc reporter gene in FRTL-5 thyrocytes; format: cell-based, rat; conditions: for NF-κB Luc Relative Luciferase Activity % of Control (±15%), +C10: 6 hours
# Experimental: Poly (I:C) (the dsRNA ligand commonly used as a test compound) activates the TLR3 mediated NF-κ β/Map kinase signal pathway in FRTL-5 thyrocytes. FRTL-5 cells were transiently transfected with 100 ng of luciferase reporter pNF-κB Luc and 2 ng of internal control phRL-Tk. After 36 h, cells were incubated with 100 μg/ml poly (I:C) or endotoxin-free E. coli DNA for 6 h. Measurements were made with the Dual Luciferase Assay System (Promega). Poly (I:C) increased TLR3 mediated NF-κB mediated luciferase activity (gene expression) 6 fold; dsDNA had no effect. Further support came from electrophoretic mobility shift analyses (EMSA). When FRTL-5 thyrocytes were incubated with 100 μg/ml poly (I:C), IL-1β, TNF-α or TPA, cells lysed after 1 h, and nuclear translocation of NF-κB measured. The poly (I:C) induced p50/p65 complex formation as measured by the presence of a specific new protein/DNA complex and its inhibition by anti-p50 and p65 antibodies, but not by anti-p52, c-rel and Rel B antibodies; the complex was also supershifted by anti-p50. […] Additionally, when FRTL-5 cells were co-transfected with pCMV-BD-Elk 1 and pFR-luc, then incubated with 100 μg/ml poly (I:C) or IL-1β for 6 hrs, ELK1 transactivation was increased 2-fold by both Poly (I:C) and IL-1β when measured with the Dual Luciferase Assay System (Promega). NF-κB/MAP Kinase signals evoked by TLR3 binding dsRNA are only one portion of TLR3 functional expression.
# Cells were co-transfected with ISRE-Luc and pRLTk-Int and then treated without (none) or with Poly I:C (100 μg/ml), LPS (100 ng/ml), IL-1β (10 ng/ml) TNF-α (25 ng/ml), IFN-β (100 U/ml) or IFN-γ (1000 U/ml) in the presence of DMSO (−) or C10 for 6 hours. Data were obtained using the Dual Luciferase Assay system. The effect on the ISRE element is not duplicated by an NF-κB reporter plasmid despite the similarity of the two elements: ([…])5 (SEQ ID NO:3) vs. ([…])5 (SEQ ID NO:4), respectively. Data are representative of multiple experiments.
# Plasmids for Reporter Gene Assays. Human IRF-3 was amplified from human cDNA and cloned into pCR 2.1 by the TOPO/TA (Invitrogen, Carlsbad, Calif.) cloning method, and then sequenced. IRF-3 was then excised by EcoRI digestion and subcloned into pCMV-BD (Stratagene, La Jolla, Calif.) for use in transactivation assays. To construct IFN-β-luc the human IFN-β promoter sequence was amplified from human genomic DNA (Clontech, Palo Alto, Calif.)) using Ex Taq™ Polymerase (Takara, Madison, Wis.). The PCR fragment contained human IFN-β promoter sequence from −125 to +34 relative to the transcription start site (+1) and incorporated KpnI and XhoI restriction sites at the 5′ and 3′ ends, respectively. The primers were as follows: hIFN-β (−125) KpnI (5′-[…]-3′) (SEQ ID NO:9) and hIFN-β (+34) XhoI (5′-[…]-3′). (SEQ ID NO: 10) The fragment was digested with KpnI and XhoI then ligated into a similarly digested pGL3 Basic (Promega, Madison, Wis.) vector. The human MyD88 wild and dominant negative expression vectors were kindly donated by Dr. P. E. Auron. pFR-luc (5×Gal4 DNA binding domains and minimal TATA box), ISRE-Luc, NF-κB-luc and the Elk1 trans-Reporting System were purchased from Stratagene. pRL TK-Int was purchased from Promega.
# Transient Expression Analysis. A DEAE procedure was used to transfect promoter-luciferase gene constructs and expression plasmids into FRTL-5 cells. Briefly, FRTL-5 cells were grown in 24-well plates to about 70% confluence, washed with 0.5 ml of serum-free culture medium (6H0 medium), then exposed to 125 μl of premade plasmid-DEAE mixture per well for 15 min at room temperature. The plasmid-DEAE mixture was prepared by incubating 100 ng of plasmid DNA, unless otherwise noted in individual experiments, with 3.125 μl of DEAE-Dextran (10 mg/ml) (Promega, Madison Wis.). FRTL-5 cells were incubated with this mixture for 2 hr at 37° C. in a CO2 incubator, before 2 ml of 6H5 medium was added. […]
# mice = conditions: mouse, in vivo; cited from earlier work
# NF-κB p65/p50 complex = assay: EMSA of NF-κB p65/p50 complex formation in FRTL-5 thyrocytes; format: cell-based, rat; conditions: FRTL-5, EMSA, 6 hours
smiles,measurement,setting,value
"Cn1c(-c2ccccc2)cnc1S [Compound C10, 5-Phenylmethimazole]",solubility in aqueous environments,[1],low
same,stability of C10 solubilized in DMSO and diluted to a working concentration,[1],not stable for prolonged periods of time
same,activity of C10 diluted in DMSO and stored in diluted form,"[1]; stored at either 4° C. or −70° C., in vitro or in vivo",inactive
same,"NF-κB Luc Relative Luciferase Activity % of Control (±15%), +C10","NF-κB; FRTL-5, Ligand IFN-β 100 U/ml",150 % of Control
same,"NF-κB Luc Relative Luciferase Activity % of Control (±15%), +C10","NF-κB; FRTL-5, Ligand IFN-γ 1000 U/ml",180 % of Control
same,"NF-κB Luc Relative Luciferase Activity % of Control (±15%), +C10","NF-κB; FRTL-5, Ligand IL-1β 10 ng/ml",350 % of Control
same,"NF-κB Luc Relative Luciferase Activity % of Control (±15%), +C10","NF-κB; FRTL-5, Ligand LPS 100 ng/ml",250 % of Control
same,"NF-κB Luc Relative Luciferase Activity % of Control (±15%), +C10","NF-κB; FRTL-5, Ligand None",100 % of Control
same,"NF-κB Luc Relative Luciferase Activity % of Control (±15%), +C10","NF-κB; FRTL-5, Ligand Poly (I:C) 100 μg/ml",300 % of Control
same,"NF-κB Luc Relative Luciferase Activity % of Control (±15%), +C10","NF-κB; FRTL-5, Ligand TNF-α 25 ng/ml",225 % of Control
same,effect on Poly (I:C)-increased NF-κB-luciferase activity,"NF-κB; FRTL-5, 0.5 mM C10 or 5 mM MMI",minimal effect
same,inflammatory response and survival in DSS induced colitis,mice,suppress the inflammatory response and improve survival
same,effect on Poly (I:C)- or LPS-increased p65/p50 complex formation,NF-κB p65/p50 complex,did not have any significant effect
